# In patent US8883745B2, “C—glycolipids with enhanced Th-1 profile” (New York University, priority 2006, dated 2014):
# Experiments:
# Assay type in all cases: in vivo
# IL-4 [1] = assay: IL-4 levels in sera upon i.v. glycolipid administration to BALB/c mice (ELISA); design: unit not given here; details: for IL-4 level, Total: total over hours 0-72
# Outline: (§1)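 Female C57BL/6 or BALB/c mice (5–6 weeks old) received 1 μg glycolipid i.v. in PBS. Sera were collected at 0, 2, 6, 12, 24, 48 and 72 h post-dose. Cytokine levels were quantified by sandwich ELISA on 1:10-diluted sera, with A450 read against known standards.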
# IL-12 = IL-12 levels in sera upon i.v. glycolipid administration to BALB/c mice (ELISA); design: IL-12 levels, test 1 / IL-12 levels, test 2 / IL-12 levels, average / IL-12 levels, Total: unit not given here; details: for IL-12/IL-4 (BALB/c): ratio calculated from Tables 1-6; for IL-12 levels, average / IL-12 levels, test 1 / IL-12 levels, test 2 / IL-12 levels, Total: serum; for IL-12 levels, Total: total over hours 0-72
# Outline: as §1
# IFN-γ = IFN-γ levels in sera upon i.v. glycolipid administration to C57BL/6 mice (ELISA); design: IFN-γ levels, test 1 / IFN-γ levels, test 2 / IFN-γ levels, average / IFN-γ levels, Total / IFN-γ (B6): unit not given here; details: for IFN-γ/IL-4 (B6): C57BL/6, ratio calculated from Tables 1-6; for IFN-γ levels, average / IFN-γ levels, test 1 / IFN-γ levels, test 2 / IFN-γ levels, Total: C57BL/6, serum; for IFN-γ levels, Total: total over hours 0-72
# Outline: as §1
# IL-4 [2] = assay: IL-4 levels in sera upon i.v. glycolipid administration to C57BL/6 mice (ELISA); design: unit not given here; details: for IL-4 level, Total: total over hours 0-72
# Outline: as §1
smiles,measurement,setting,value
CCCCCCCCCCCCCCCCC/C=C/CCCCCCCCC(=O)N[C@@H](CC[C@H]1O[C@H](CO)[C@H](O)[C@H](O)[C@H]1O)[C@H](O)[C@H](O)CCCCCCCCCCCCCC [A-3],"IL-4 level, average",IL-4 [1]; hour 0,27
same,"IL-4 level, test 1",IL-4 [1]; hour 0,27
same,"IL-4 level, test 2",IL-4 [1]; hour 0,27
same,"IL-4 level, average",IL-4 [1]; hour 2,307.5
same,"IL-4 level, test 1",IL-4 [1]; hour 2,273
same,"IL-4 level, test 2",IL-4 [1]; hour 2,342
same,"IL-4 level, average",IL-4 [1]; hour 6,54.5
same,"IL-4 level, test 1",IL-4 [1]; hour 6,56
same,"IL-4 level, test 2",IL-4 [1]; hour 6,53
same,"IL-4 level, average",IL-4 [1]; hour 12,48
same,"IL-4 level, test 1",IL-4 [1]; hour 12,44
same,"IL-4 level, test 2",IL-4 [1]; hour 12,52
same,"IL-4 level, average",IL-4 [1]; hour 24,44
same,"IL-4 level, test 1",IL-4 [1]; hour 24,44
same,"IL-4 level, test 2",IL-4 [1]; hour 24,44
same,"IL-4 level, average",IL-4 [1]; hour 48,43
same,"IL-4 level, test 1",IL-4 [1]; hour 48,48
same,"IL-4 level, test 2",IL-4 [1]; hour 48,38
same,"IL-4 level, average",IL-4 [1]; hour 72,12.23
same,"IL-4 level, test 1",IL-4 [1]; hour 72,12.23
same,"IL-4 level, test 2",IL-4 [1]; hour 72,12.23
same,"IL-4 level, Total",IL-4 [1],538
same,IL-12/IL-4 (BALB/c),IL-12,9
same,"IL-12 levels, average",IL-12; hour 0,5
same,"IL-12 levels, test 1",IL-12; hour 0,5
same,"IL-12 levels, test 2",IL-12; hour 0,5
same,"IL-12 levels, average",IL-12; hour 2,240
same,"IL-12 levels, test 1",IL-12; hour 2,362
same,"IL-12 levels, test 2",IL-12; hour 2,118
same,"IL-12 levels, average",IL-12; hour 6,1384.5
same,"IL-12 levels, test 1",IL-12; hour 6,1356
same,"IL-12 levels, test 2",IL-12; hour 6,1413
same,"IL-12 levels, average",IL-12; hour 12,3010.5
same,"IL-12 levels, test 1",IL-12; hour 12,3256
same,"IL-12 levels, test 2",IL-12; hour 12,2765
same,"IL-12 levels, average",IL-12; hour 24,161
same,"IL-12 levels, test 1",IL-12; hour 24,134
same,"IL-12 levels, test 2",IL-12; hour 24,188
same,"IL-12 levels, average",IL-12; hour 48,0
same,"IL-12 levels, test 1",IL-12; hour 48,0
same,"IL-12 levels, test 2",IL-12; hour 48,0
same,"IL-12 levels, average",IL-12; hour 72,75.5
same,"IL-12 levels, test 1",IL-12; hour 72,0
same,"IL-12 levels, test 2",IL-12; hour 72,151
same,"IL-12 levels, Total",IL-12,4878
same,IFN-γ/IL-4 (B6),IFN-γ,14
same,"IFN-γ levels, average",IFN-γ; hour 0,31
same,"IFN-γ levels, test 1",IFN-γ; hour 0,31
same,"IFN-γ levels, test 2",IFN-γ; hour 0,31
same,"IFN-γ levels, average",IFN-γ; hour 2,213
same,"IFN-γ levels, test 1",IFN-γ; hour 2,185
same,"IFN-γ levels, test 2",IFN-γ; hour 2,241
same,"IFN-γ levels, average",IFN-γ; hour 6,606
same,"IFN-γ levels, test 1",IFN-γ; hour 6,542
same,"IFN-γ levels, test 2",IFN-γ; hour 6,670
same,"IFN-γ levels, average",IFN-γ; hour 12,2440.5
same,"IFN-γ levels, test 1",IFN-γ; hour 12,2665
same,"IFN-γ levels, test 2",IFN-γ; hour 12,2216
same,"IFN-γ levels, average",IFN-γ; hour 24,9036
same,"IFN-γ levels, test 1",IFN-γ; hour 24,9837
same,"IFN-γ levels, test 2",IFN-γ; hour 24,8235
same,"IFN-γ levels, average",IFN-γ; hour 48,344
same,"IFN-γ levels, test 1",IFN-γ; hour 48,382
same,"IFN-γ levels, test 2",IFN-γ; hour 48,306
same,"IFN-γ levels, average",IFN-γ; hour 72,79.5
same,"IFN-γ levels, test 1",IFN-γ; hour 72,75
same,"IFN-γ levels, test 2",IFN-γ; hour 72,84
same,"IFN-γ levels, Total",IFN-γ,12751
same,"IL-4 level, average",IL-4 [2]; hour 0,46
same,"IL-4 level, test 1",IL-4 [2]; hour 0,46
same,"IL-4 level, test 2",IL-4 [2]; hour 0,46
same,"IL-4 level, average",IL-4 [2]; hour 2,576
same,"IL-4 level, test 1",IL-4 [2]; hour 2,398
same,"IL-4 level, test 2",IL-4 [2]; hour 2,754
same,"IL-4 level, average",IL-4 [2]; hour 6,72.5
same,"IL-4 level, test 1",IL-4 [2]; hour 6,59
same,"IL-4 level, test 2",IL-4 [2]; hour 6,86
same,"IL-4 level, average",IL-4 [2]; hour 12,49
same,"IL-4 level, test 1",IL-4 [2]; hour 12,43
same,"IL-4 level, test 2",IL-4 [2]; hour 12,55
same,"IL-4 level, average",IL-4 [2]; hour 24,57.5
same,"IL-4 level, test 1",IL-4 [2]; hour 24,49
same,"IL-4 level, test 2",IL-4 [2]; hour 24,66
same,"IL-4 level, average",IL-4 [2]; hour 48,54.5
same,"IL-4 level, test 1",IL-4 [2]; hour 48,54
same,"IL-4 level, test 2",IL-4 [2]; hour 48,55
same,"IL-4 level, average",IL-4 [2]; hour 72,58
same,"IL-4 level, test 1",IL-4 [2]; hour 72,54
same,"IL-4 level, test 2",IL-4 [2]; hour 72,62
same,"IL-4 level, Total",IL-4 [2],915
CCCCCCCCCCCCCC[C@@H](O)[C@@H](O)[C@H](CC[C@H]1O[C@H](CO)[C@H](O)[C@H](O)[C@H]1O)NC(=O)CCCCCCCCCCCCCCCCCCCOCCCCCC [A-4],"IL-4 level, average",IL-4 [1]; hour 0,27
same,"IL-4 level, test 1",IL-4 [1]; hour 0,27
same,"IL-4 level, test 2",IL-4 [1]; hour 0,27
same,"IL-4 level, average",IL-4 [1]; hour 2,207
same,"IL-4 level, test 1",IL-4 [1]; hour 2,200
same,"IL-4 level, test 2",IL-4 [1]; hour 2,214
same,"IL-4 level, average",IL-4 [1]; hour 6,79.5
same,"IL-4 level, test 1",IL-4 [1]; hour 6,85
same,"IL-4 level, test 2",IL-4 [1]; hour 6,74
same,"IL-4 level, average",IL-4 [1]; hour 12,58
same,"IL-4 level, test 1",IL-4 [1]; hour 12,64
same,"IL-4 level, test 2",IL-4 [1]; hour 12,52
same,"IL-4 level, average",IL-4 [1]; hour 24,67.5
same,"IL-4 level, test 1",IL-4 [1]; hour 24,50
same,"IL-4 level, test 2",IL-4 [1]; hour 24,85
same,"IL-4 level, average",IL-4 [1]; hour 48,59
same,"IL-4 level, test 1",IL-4 [1]; hour 48,52
same,"IL-4 level, test 2",IL-4 [1]; hour 48,66
same,"IL-4 level, average",IL-4 [1]; hour 72,12
same,"IL-4 level, test 1",IL-4 [1]; hour 72,12
same,"IL-4 level, test 2",IL-4 [1]; hour 72,12
same,"IL-4 level, Total",IL-4 [1],511
same,IL-12/IL-4 (BALB/c),IL-12,12
same,"IL-12 levels, average",IL-12; hour 0,5
same,"IL-12 levels, test 1",IL-12; hour 0,5
same,"IL-12 levels, test 2",IL-12; hour 0,5
same,"IL-12 levels, average",IL-12; hour 2,54.5
same,"IL-12 levels, test 1",IL-12; hour 2,57
same,"IL-12 levels, test 2",IL-12; hour 2,52
same,"IL-12 levels, average",IL-12; hour 6,914.5
same,"IL-12 levels, test 1",IL-12; hour 6,730
same,"IL-12 levels, test 2",IL-12; hour 6,1099
same,"IL-12 levels, average",IL-12; hour 12,4463
same,"IL-12 levels, test 1",IL-12; hour 12,3799
same,"IL-12 levels, test 2",IL-12; hour 12,5127
same,"IL-12 levels, average",IL-12; hour 24,333.5
same,"IL-12 levels, test 1",IL-12; hour 24,396
same,"IL-12 levels, test 2",IL-12; hour 24,271
same,"IL-12 levels, average",IL-12; hour 48,89
same,"IL-12 levels, test 1",IL-12; hour 48,58
same,"IL-12 levels, test 2",IL-12; hour 48,120
same,"IL-12 levels, average",IL-12; hour 72,64.5
same,"IL-12 levels, test 1",IL-12; hour 72,78
same,"IL-12 levels, test 2",IL-12; hour 72,51
same,"IL-12 levels, Total",IL-12,5926
same,IFN-γ/IL-4 (B6),IFN-γ,10
same,"IFN-γ levels, average",IFN-γ; hour 0,31
same,"IFN-γ levels, test 1",IFN-γ; hour 0,31
same,"IFN-γ levels, test 2",IFN-γ; hour 0,31
same,"IFN-γ levels, average",IFN-γ; hour 2,308.5
same,"IFN-γ levels, test 1",IFN-γ; hour 2,255
same,"IFN-γ levels, test 2",IFN-γ; hour 2,362
same,"IFN-γ levels, average",IFN-γ; hour 6,1329
same,"IFN-γ levels, test 1",IFN-γ; hour 6,1381
same,"IFN-γ levels, test 2",IFN-γ; hour 6,1277
same,"IFN-γ levels, average",IFN-γ; hour 12,2335.5
same,"IFN-γ levels, test 1",IFN-γ; hour 12,2466
same,"IFN-γ levels, test 2",IFN-γ; hour 12,2205
same,"IFN-γ levels, average",IFN-γ; hour 24,5563.5
same,"IFN-γ levels, test 1",IFN-γ; hour 24,5291
same,"IFN-γ levels, test 2",IFN-γ; hour 24,5836
same,"IFN-γ levels, average",IFN-γ; hour 48,742
same,"IFN-γ levels, test 1",IFN-γ; hour 48,581
same,"IFN-γ levels, test 2",IFN-γ; hour 48,903
same,"IFN-γ levels, average",IFN-γ; hour 72,220.5
same,"IFN-γ levels, test 1",IFN-γ; hour 72,245
same,"IFN-γ levels, test 2",IFN-γ; hour 72,196
same,"IFN-γ levels, Total",IFN-γ,10532
same,"IL-4 level, average",IL-4 [2]; hour 0,46
same,"IL-4 level, test 1",IL-4 [2]; hour 0,46
same,"IL-4 level, test 2",IL-4 [2]; hour 0,46
same,"IL-4 level, average",IL-4 [2]; hour 2,696.5
same,"IL-4 level, test 1",IL-4 [2]; hour 2,627
same,"IL-4 level, test 2",IL-4 [2]; hour 2,766
same,"IL-4 level, average",IL-4 [2]; hour 6,126
same,"IL-4 level, test 1",IL-4 [2]; hour 6,83
same,"IL-4 level, test 2",IL-4 [2]; hour 6,169
same,"IL-4 level, average",IL-4 [2]; hour 12,43.5
same,"IL-4 level, test 1",IL-4 [2]; hour 12,40
same,"IL-4 level, test 2",IL-4 [2]; hour 12,47
same,"IL-4 level, average",IL-4 [2]; hour 24,29.5
same,"IL-4 level, test 1",IL-4 [2]; hour 24,29
same,"IL-4 level, test 2",IL-4 [2]; hour 24,30
same,"IL-4 level, average",IL-4 [2]; hour 48,28.5
same,"IL-4 level, test 1",IL-4 [2]; hour 48,39
same,"IL-4 level, test 2",IL-4 [2]; hour 48,18
same,"IL-4 level, average",IL-4 [2]; hour 72,41.5
same,"IL-4 level, test 1",IL-4 [2]; hour 72,54
same,"IL-4 level, test 2",IL-4 [2]; hour 72,29
same,"IL-4 level, Total",IL-4 [2],1014
